Source: the supplement of paper PMC10307832

Assays:
Test in all cases: relative viability (nuclei count vs DMSO), 5 days (fraction); higher = more cells survive
[1] = compound: CCN(CC)CCNC(=O)c1c(C)[nH]c(/C=C2\C(=O)Nc3ccc(F)cc32)c1C [Sunitinib] + C[C@]1(O)C[C@@H](c2nc(-c3ccc4ccc(-c5ccccc5)nc4c3)c3c(N)nccn32)C1 [Linsitinib] (partner 1 µM)
Procedure, shortened: (§1)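 The day after seeding in 1536-well plates, lung cancer cell lines were treated by pin tool with a single drug, or with a fixed anchor-drug dose together with five library-drug doses (not always all listed) in √10 steps. After 5 days, a combined fix-and-stain solution (final 0.05% Triton X-100, 1% formaldehyde, 1 ug/ml Hoechst) was added. Nuclei counted on 4× images gave relative viability as treated counts over vehicle counts, reported as the median of duplicate plates.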

[2] = compound: CCN(CC)CCNC(=O)c1c(C)[nH]c(/C=C2\C(=O)Nc3ccc(F)cc32)c1C [Sunitinib] + CS(=O)(=O)CCNCc1ccc(-c2ccc3ncnc(Nc4ccc(OCc5cccc(F)c5)c(Cl)c4)c3c2)o1 [Lapatinib] (partner 2 µM)
Procedure, shortened: as §1

[3] = compound: CCN(CC)CCNC(=O)c1c(C)[nH]c(/C=C2\C(=O)Nc3ccc(F)cc32)c1C [Sunitinib] + CCNC(=O)c1noc(-c2cc(C(C)C)c(O)cc2O)c1-c1ccc(CN2CCOCC2)cc1 [Luminespib] (partner 0.01 µM)
Procedure, shortened: as §1

[4] = compound: CCN(CC)CCNC(=O)c1c(C)[nH]c(/C=C2\C(=O)Nc3ccc(F)cc32)c1C [Sunitinib] + COc1cccc2cc(-c3nc([C@H]4CC[C@H](C(=O)O)CC4)n4ncnc(N)c34)[nH]c12 [OSI-027] (partner 0.5 µM)
Procedure, shortened: as §1

Row | Cell Line | relative viability ([1]; first compound 0.02 µM) | relative viability ([1]; first compound 0.06325 µM) | relative viability ([1]; first compound 0.2 µM) | relative viability ([1]; first compound 0.6325 µM) | relative viability ([1]; first compound 2 µM) | relative viability ([2]; first compound 0.02 µM) | relative viability ([2]; first compound 0.06325 µM) | relative viability ([2]; first compound 0.2 µM) | relative viability ([2]; first compound 0.6325 µM) | relative viability ([2]; first compound 2 µM) | relative viability ([3]; first compound 0.02 µM) | relative viability ([3]; first compound 0.06325 µM) | relative viability ([3]; first compound 0.2 µM) | relative viability ([3]; first compound 2 µM) | relative viability ([4]; first compound 0.02 µM) | relative viability ([4]; first compound 0.06325 µM) | relative viability ([4]; first compound 0.2 µM) | relative viability ([4]; first compound 0.6325 µM) | relative viability ([4]; first compound 2 µM) | relative viability ([3]; first compound 0.6325 µM)
1 | SK-MES-1 | 0.982 | 1.1 | 1.12 | 1.08 | 1.03 | 0.471 | 0.502 | 0.487 | 0.481 | 0.419 | 0.729 | 0.708 | 0.795 | 0.7 | 0.583 | 0.63 | 0.681 | 0.719 | 0.56 | –
2 | NCI-H1793 | – | 0.856 | 1.08 | 0.838 | 0.93 | – | 0.675 | 0.828 | 0.651 | 0.484 | 0.19 | 0.166 | 0.165 | 0.166 | 0.278 | 0.245 | 0.252 | 0.274 | 0.194 | 0.191
3 | NCI-H1734 | 0.844 | 0.95 | 0.936 | 0.944 | 0.756 | 0.968 | 1.16 | 1.35 | 1.18 | 1.05 | 0.166 | 0.186 | 0.188 | 0.212 | 0.613 | 0.683 | 0.7 | 0.608 | 0.511 | 0.149
4 | NCI-H1437 | 0.975 | 1 | 1.2 | – | 1.02 | 0.789 | 1.1 | 0.928 | 0.793 | 1.03 | 1.03 | 1.12 | 1.23 | 1.17 | 0.873 | 0.918 | – | 0.855 | 0.885 | 1.12
5 | HOP-62 | 0.968 | 1.23 | 1.18 | 1.1 | 1.11 | 0.961 | 1.09 | 1.01 | 1.01 | 1.1 | 0.832 | 0.928 | 1 | 0.919 | 0.763 | 1.01 | – | 0.977 | 0.995 | 1.02
6 | HCC-15 | 0.803 | 0.838 | 0.928 | 0.902 | 0.86 | 0.855 | 0.9 | 0.91 | 0.826 | 0.829 | 0.251 | 0.278 | 0.347 | 0.227 | 0.608 | – | 0.852 | 0.714 | 0.641 | 0.255
7 | HCC-44 | 0.641 | 0.757 | 0.772 | 0.665 | 0.727 | 1.06 | 1 | 1.09 | 0.985 | – | 0.949 | 1.1 | 1.5 | 1.14 | 0.558 | 0.459 | 0.676 | 0.64 | 0.665 | 0.972
8 | NCI-H596 | 1 | 1.02 | 1.21 | 1.14 | 0.911 | 0.987 | 1.14 | 1.22 | 1.19 | 1.08 | 0.884 | 1.05 | 1.09 | 0.941 | 0.731 | 0.799 | 0.787 | 0.699 | 0.552 | 1.03
9 | NCI-H322M | 0.871 | 0.969 | 0.985 | 0.942 | 0.754 | 0.594 | 0.649 | 0.583 | 0.655 | 0.633 | – | 0.859 | 0.966 | 0.616 | 0.53 | 0.582 | 0.656 | 0.624 | 0.549 | 0.948
10 | NCI-H2023 | 0.709 | 0.594 | 0.754 | 0.788 | 0.582 | 0.912 | 1.09 | 0.998 | 0.814 | 0.91 | 0.602 | 0.671 | 1.08 | 0.611 | 0.341 | 0.437 | 0.399 | 0.398 | 0.289 | 0.765
11 | NCI-H661 | 0.488 | 0.513 | 0.496 | 0.572 | 0.598 | 0.433 | 0.453 | 0.527 | 0.582 | 0.448 | 0.896 | 0.934 | 0.949 | 0.83 | 0.646 | 0.785 | 0.801 | 0.767 | 0.704 | 0.896
12 | BEN | – | 0.862 | 1.07 | 0.951 | 0.896 | 0.651 | 0.754 | 0.675 | 0.673 | 0.618 | 0.414 | 0.453 | 0.396 | 0.333 | 0.306 | 0.32 | 0.281 | 0.3 | 0.273 | 0.53
13 | ABC-1 | 1.03 | 0.766 | 0.855 | 0.923 | 0.718 | 1.18 | 1.19 | 1.34 | 1 | 1.19 | 0.407 | 0.609 | 0.533 | 0.861 | 0.43 | 0.604 | 0.494 | 0.685 | 0.504 | 0.622
14 | LOU-NH91 | – | 0.983 | 0.959 | 0.95 | 0.87 | 0.732 | 0.839 | 0.828 | 0.816 | 0.764 | 0.332 | 0.403 | 0.338 | 0.349 | 0.778 | 0.74 | 0.772 | 0.73 | 0.742 | 0.357
15 | PC-14 | – | 1.05 | 1.04 | 1.02 | 0.881 | 0.301 | 0.332 | 0.369 | 0.33 | 0.314 | 0.18 | 0.121 | 0.201 | 0.216 | 0.716 | 0.893 | 1.02 | 0.795 | 0.695 | 0.144
16 | NCI-H1993 | 0.711 | 0.744 | – | 0.8 | 0.664 | 0.835 | 0.889 | 0.834 | 0.836 | 0.849 | 0.741 | 0.941 | 0.866 | 0.79 | 0.598 | 0.482 | 0.551 | 0.568 | 0.554 | 0.654
17 | NCI-H2126 | 0.719 | 0.695 | 0.74 | 0.759 | 0.717 | 0.677 | 0.781 | 0.808 | 0.809 | 0.807 | 0.875 | 0.918 | 0.897 | 0.866 | 0.738 | 0.665 | 0.988 | 0.773 | 0.672 | 0.985
18 | COR-L23 | 0.902 | 1.1 | 1 | 1.02 | 0.999 | 0.71 | 1.18 | 0.983 | 1.14 | 0.951 | 0.647 | 0.658 | 0.881 | 0.57 | 0.73 | 0.829 | 0.889 | 0.878 | 0.779 | 0.831
19 | NCI-H1792 | 0.556 | 0.479 | 0.419 | 0.511 | 0.561 | 0.885 | 0.952 | 1.07 | 0.809 | 0.923 | – | 0.38 | 0.622 | 0.426 | 0.667 | 0.716 | 0.829 | 0.691 | 0.481 | 0.483
20 | NCI-H520 | 0.86 | 1.15 | 0.911 | 0.975 | 1.01 | 0.786 | – | 0.964 | 0.916 | – | 0.22 | 0.231 | 0.214 | 0.228 | 0.249 | 0.286 | 0.321 | 0.292 | 0.3 | 0.22
21 | COR-L 105 | 1.02 | 0.994 | 0.839 | 1.15 | 1.03 | 0.336 | 0.459 | 0.358 | 0.36 | 0.372 | 0.665 | 0.706 | 0.744 | 0.686 | 0.626 | 0.734 | 0.779 | 0.987 | 0.767 | 0.914
22 | HCC-827 | 0.971 | 0.887 | 0.98 | 1 | 0.936 | 0.191 | 0.198 | 0.198 | 0.222 | 0.215 | 0.572 | 0.377 | 0.606 | 0.554 | 0.743 | 0.709 | – | 0.76 | 0.826 | 0.751
23 | NCI-H2228 | 0.611 | 0.584 | 0.841 | 0.808 | 0.349 | 1.04 | 1.23 | 1.13 | 1.16 | – | 0.138 | 0.145 | 0.148 | 0.114 | 0.523 | 0.658 | 0.625 | 0.529 | 0.411 | 0.177
